Bridge positions count the residues as written; N and C are the ends. Ends that are not written are not given here.
How the values were obtained:
[1] = target: T1, interaction of PCSK9-LDLR (Homo sapiens, UniProt Q8NBP7); assay: PCSK9-LDLR in vitro binding assay (inhibitory rate); settings: in vitro
T1 construct: purchased MBL Company, Beijing, China CY-8150
Method: Polypeptide PCSK9_1-14 (SEQ ID NOs: 210-223) is dissolved in pure water or DMSO. 85 μL reaction buffer, 5 μL 1 mM polypeptide sample and 10 μL 750 ng/mL PCSK9 protein was pre-incubated at room temperature for 20 minutes before being added to a 96 well plate. The OD450/540 nm value was measured according to the instructions of the PCSK9-LDLR in Vitro Binding Assay Kit (CY-8150, MBL Company, Beijing, China). Solvent control: replace polypeptide with 5 μL solvent. In 100 μL reaction system, the final concentration of the polypeptide and PCSK9 is 50 μM and 75 ng/mL, respectively.
Inhibition rate of polypeptide (%)=(OD450/540 nm(solvent control)−OD450/540 nm (sample))/OD450/540 nm(solvent control)×100

[2] = test system: P407-induced hyperlipidemia mice; assay: Subcutaneous injection of PCSK9 inhibitory peptide, serum total cholesterol in P407-induced hyperlipidemia mice; assay type: in vivo, mouse; settings: for serum total cholesterol (TC) level after subcutaneous injection (in words): 2 μmol/kg single s.c., P407-induced hyperlipidemia mice; for TC 30 min / TC 60 min / TC 90 min / TC 120 min / TC 15 min: serum, subcutaneous 2 μmol/kg, mean ± sd; for TC 30 min: 30 min after administration; for TC 60 min: 60 min after administration; for TC 90 min: 90 min after administration; for TC 120 min: 120 min after administration; for TC 15 min: 15 min after administration
Method: The experimental peptide sample was prepared using PEG400 with a final concentration of […], and the final concentration of PEG400 is 20% (w/v). Normal ICR mice were fasted overnight with water ad libitum. The next day, all of the mice were randomly divided into model control group (Con) and polypeptide administration group (2 μmol/kg) according to body weight. Then, all of the mice were intraperitoneally injected with P407 (500 mg/kg) and fed with feed 2 hours later. Six mice were taken as a normal control group (Nor). After 24 hours, the mice in Con were subcutaneously injected with saline containing 20% PEG400, and the mice in the treatment group were given peptides. Then, the blood was taken at different time points after administration to determine the serum total cholesterol (TC) level. In consideration of the complexity of factors affecting serum LDL-C levels, especially the differences between single and long-term administration, the in vivo activity of PCSK9 inhibitory peptide is mainly observed for changes in serum TC levels.

Row | Substance | inhibitory activity on the interaction between PCSK9 and LDLR (in words) [1] | serum total cholesterol (TC) level after subcutaneous injection (in words) [2] | TC 30 min [2] | TC 60 min [2] | TC 90 min [2] | TC 120 min [2] | TC 15 min [2] | other results
1 | Thr-Val-Phe-Thr-Ser-Gly-Arg-Cys-Thr-Lys-Ser-Ile-Pro-Pro-Ile-Cys-Phe-Trp-Glu-Glu-Tyr-Leu-Asp-Trp-Val (TVFTSGRCTKSIPPICFWEEYLDWV; disulfide 8-16 (inferred)) [PCSK9_9] | good inhibitory activity on the interaction between PCSK9 and LDLR | reduced serum TC level | 3143 ± 842 µg/mL | 3516 ± 914 µg/mL | 3409 ± 970 µg/mL | 327.4 ± 90.4 mg/dL | – | inhibitory activity on the interaction between PCSK9 and LDLR (in words) ([1]; listed as SEQ ID NO: 218): good inhibitory effects in vitro; serum total cholesterol (TC) level after subcutaneous injection (in words) ([2]; listed as SEQ ID NO: 218): excellent lowering lipid (total cholesterol) activities in vivo
2 | Thr-Val-Phe-Thr-Ser-Gly-Cys-Gly-Arg-Ala-Thr-Lys-Ser-Ile-Pro-Pro-Ile-Cys-Phe-Trp-Glu-Glu-Tyr-Leu-Asp-Trp-Val (TVFTSGCGRATKSIPPICFWEEYLDWV; disulfide 7-18 (inferred)) [PCSK9_7] | good inhibitory activity on the interaction between PCSK9 and LDLR | – | 3398 ± 990 µg/mL | 3618 ± 954 µg/mL | 3461 ± 937 µg/mL | 337.6 ± 95.8 mg/dL | – | inhibitory activity on the interaction between PCSK9 and LDLR (in words) ([1]; listed as SEQ ID NO: 216): good inhibitory effects in vitro
3 | Thr-Val-Phe-Thr-Ser-Gly-Ile-Cys-Thr-Ala-Ser-Ile-Pro-Pro-Ile-Cys-Gln-Trp-Glu-Glu-Tyr-Leu-Asp-Trp-Val (TVFTSGICTASIPPICQWEEYLDWV; disulfide 8-16 (inferred)) [PCSK9_9EC] | good inhibitory activity on the interaction between PCSK9 and LDLR | – | 2744 ± 909 µg/mL | 2676 ± 783 µg/mL | 2657 ± 838 µg/mL | – | 2789 ± 797 µg/mL | inhibitory activity on the interaction between PCSK9 and LDLR (in words) ([1]; listed as SEQ ID NO: 233): good inhibitory effects in vitro
4 | Thr-Val-Phe-Thr-Ser-Gly-Phe-Cys-Thr-Tyr-Ser-Ile-Pro-Pro-Gln-Cys-Tyr-Gly-Trp-Glu-Glu-Tyr-Leu-Asp-Trp-Val (TVFTSGFCTYSIPPQCYGWEEYLDWV; disulfide 8-16 (inferred)) [PCSK9_9CH] | good inhibitory activity on the interaction between PCSK9 and LDLR | – | 4212 ± 753 µg/mL | 3658 ± 664 µg/mL | 2891 ± 710 µg/mL | – | 3727 ± 1154 µg/mL | inhibitory activity on the interaction between PCSK9 and LDLR (in words) ([1]; listed as SEQ ID NO: 232): good inhibitory effects in vitro
5 | Thr-Val-Phe-Thr-Ser-Trp-Glu-Glu-Ala-Leu-Asp-Trp-Val-Cys-Gly-Arg-Ala-Thr-Lys-Ser-Ile-Pro-Pro-Ile-Cys-Phe (TVFTSWEEALDWVCGRATKSIPPICF; disulfide 14-25 (inferred)) [PCSK9_2] | good inhibitory activity on the interaction between PCSK9 and LDLR | – | 3079 ± 1081 µg/mL | 3178 ± 1039 µg/mL | 3078 ± 1044 µg/mL | 295.5 ± 95.4 mg/dL | – | inhibitory activity on the interaction between PCSK9 and LDLR (in words) ([1]; listed as SEQ ID NO: 211): good inhibitory effects in vitro
6 | Thr-Val-Phe-Thr-Ser-Trp-Glu-Glu-Ala-Leu-Asp-Trp-Val-Gly-Ile-Cys-Thr-Ala-Ser-Ile-Pro-Pro-Ile-Cys-Gln (TVFTSWEEALDWVGICTASIPPICQ-OH; disulfide 16-24 (inferred)) [PCSK9_2EC] | good inhibitory activity on the interaction between PCSK9 and LDLR | – | 2859 ± 535 µg/mL | 2853 ± 487 µg/mL | 2757 ± 475 µg/mL | – | 2954 ± 455 µg/mL | inhibitory activity on the interaction between PCSK9 and LDLR (in words) ([1]; listed as SEQ ID NO: 225): good inhibitory effects in vitro
7 | Thr-Val-Phe-Thr-Ser-Trp-Glu-Glu-Ala-Leu-Asp-Trp-Val-Gly-Phe-Cys-Thr-Tyr-Ser-Ile-Pro-Pro-Gln-Cys-Tyr-Gly (TVFTSWEEALDWVGFCTYSIPPQCYG-OH; disulfide 16-24 (inferred)) [PCSK9_2CH] | good inhibitory activity on the interaction between PCSK9 and LDLR | – | 2586 ± 700 µg/mL | 2737 ± 762 µg/mL | 2489 ± 760 µg/mL | – | 2772 ± 762 µg/mL | inhibitory activity on the interaction between PCSK9 and LDLR (in words) ([1]; listed as SEQ ID NO: 224): good inhibitory effects in vitro
8 | Trp-Glu-Glu-Ala-Leu-Asp-Trp-Val-Cys-Gly-Arg-Ala-Thr-Lys-Ser-Ile-Pro-Pro-Ile-Cys-Phe-Gly-Thr-Val-Phe-Thr-Ser (WEEALDWVCGRATKSIPPICFGTVFTS; disulfide 9-20 (inferred)) [PCSK9_5] | good inhibitory activity on the interaction between PCSK9 and LDLR | reduced serum TC level | 3236 ± 542 µg/mL | 3089 ± 523 µg/mL | 2980 ± 591 µg/mL | – | 3050 ± 524 µg/mL | inhibitory activity on the interaction between PCSK9 and LDLR (in words) ([1]; listed as SEQ ID NO: 214): good inhibitory effects in vitro; serum total cholesterol (TC) level after subcutaneous injection (in words) ([2]; listed as SEQ ID NO: 214): excellent lowering lipid (total cholesterol) activities in vivo
9 | Trp-Glu-Glu-Ala-Leu-Asp-Trp-Val-Gly-Ile-Cys-Thr-Ala-Ser-Ile-Pro-Pro-Ile-Cys-Gln-Gly-Thr-Val-Phe-Thr-Ser (WEEALDWVGICTASIPPICQGTVFTS; disulfide 11-19 (inferred)) [PCSK9_5EC] | good inhibitory activity on the interaction between PCSK9 and LDLR | reduced serum TC level | 2231 ± 795 µg/mL | 2577 ± 466 µg/mL | 2532 ± 425 µg/mL | – | 2669 ± 520 µg/mL | inhibitory activity on the interaction between PCSK9 and LDLR (in words) ([1]; listed as SEQ ID NO: 229): good inhibitory effects in vitro; serum total cholesterol (TC) level after subcutaneous injection (in words) ([2]; listed as SEQ ID NO: 229): excellent lowering lipid (total cholesterol) activities in vivo
10 | Trp-Glu-Glu-Ala-Leu-Asp-Trp-Val-Gly-Phe-Cys-Thr-Tyr-Ser-Ile-Pro-Pro-Gln-Cys-Tyr-Gly-Thr-Val-Phe-Thr-Ser (WEEALDWVGFCTYSIPPQCYGTVFTS; disulfide 11-19 (inferred)) [PCSK9_5CH] | good inhibitory activity on the interaction between PCSK9 and LDLR | – | 3067 ± 685 µg/mL | 3023 ± 1035 µg/mL | 2705 ± 741 µg/mL | – | 3002 ± 716 µg/mL | inhibitory activity on the interaction between PCSK9 and LDLR (in words) ([1]; listed as SEQ ID NO: 228): good inhibitory effects in vitro
